Legend:
[1] = target: CDK9 (Homo sapiens (Human), UniProt P50750); assay: In vitro kinase inhibition, KinaseProfiler service of Millipore, residual activity; type: biochemical; settings: for remaining activity at 0.01 µM / CDK9 10 nM (RA in %): residual activity at 10 nM compound; for remaining activity at 0.01 µM: read-out: CDK9 10 nM (RA in %); for remaining activity at 0.1 µM / CDK9 100 nM (RA in %): residual activity at 100 nM compound; for remaining activity at 0.1 µM: read-out: CDK9 100 nM (RA in %)
Sequence of CDK9 (P50750 whole entry): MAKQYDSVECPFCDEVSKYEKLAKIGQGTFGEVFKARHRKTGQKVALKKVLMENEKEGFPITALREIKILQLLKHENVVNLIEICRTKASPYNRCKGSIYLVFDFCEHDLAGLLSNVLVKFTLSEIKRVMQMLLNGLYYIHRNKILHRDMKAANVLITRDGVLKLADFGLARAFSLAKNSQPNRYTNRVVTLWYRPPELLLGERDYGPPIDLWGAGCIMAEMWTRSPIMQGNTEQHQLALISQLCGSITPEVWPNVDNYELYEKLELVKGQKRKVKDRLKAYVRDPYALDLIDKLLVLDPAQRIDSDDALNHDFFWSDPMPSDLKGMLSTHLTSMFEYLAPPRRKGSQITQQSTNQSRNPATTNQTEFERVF
Sequence of CDK9 (O60563 whole entry partner): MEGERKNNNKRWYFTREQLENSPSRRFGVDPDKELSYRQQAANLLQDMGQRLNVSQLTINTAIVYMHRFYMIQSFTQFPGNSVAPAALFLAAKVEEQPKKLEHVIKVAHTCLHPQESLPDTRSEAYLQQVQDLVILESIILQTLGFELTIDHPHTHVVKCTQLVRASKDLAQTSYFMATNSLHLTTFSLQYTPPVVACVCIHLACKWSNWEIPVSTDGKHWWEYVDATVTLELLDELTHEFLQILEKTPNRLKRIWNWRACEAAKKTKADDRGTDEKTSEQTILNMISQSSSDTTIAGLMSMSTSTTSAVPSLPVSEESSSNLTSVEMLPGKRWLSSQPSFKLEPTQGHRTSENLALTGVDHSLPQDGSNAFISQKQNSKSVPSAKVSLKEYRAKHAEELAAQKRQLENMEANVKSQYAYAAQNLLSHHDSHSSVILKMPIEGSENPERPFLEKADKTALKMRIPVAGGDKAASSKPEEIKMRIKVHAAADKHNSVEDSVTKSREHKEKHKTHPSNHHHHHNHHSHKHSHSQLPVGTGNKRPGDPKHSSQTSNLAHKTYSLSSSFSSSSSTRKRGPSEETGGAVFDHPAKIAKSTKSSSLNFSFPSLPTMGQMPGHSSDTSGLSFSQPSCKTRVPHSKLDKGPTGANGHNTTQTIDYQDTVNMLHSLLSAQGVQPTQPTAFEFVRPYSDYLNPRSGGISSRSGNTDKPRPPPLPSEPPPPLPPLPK
Source text: In vitro kinase assay analysis may be performed using standard techniques described in the art. These techniques are also used by commercial services providers in order to offer in vitro kinase activity assay services, e.g. the assays offered by Millipore Inc. (worldwide website www(dot)millipore.com), ProQinase GmbH (worldwide website www(dot)proqinase.de) and others.
In vitro kinase inhibition results shown in columns 7 to 9 in Table 1 were obtained by employing the KinaseProfiler™ service of Millipore and used to select compounds displaying specificity for CDK9. Specifically, it was intended to distinguish the CDK9-specific compounds from other compounds having significant inhibitory potency also with regard to other CDKs.

[2] = tested on: TNF-alpha inducible reporter gene; assay: Inhibition of TNF-alpha-induced reporter gene expression (luciferase) in HeLa-derived cell line; type: cell-based, human; settings: remaining luciferase activity in presence of 3 μM of compound as ratio of DMSO-treated cells, TNF-alpha 50 ng/ml; for activity at 3 µM: Homo sapiens, 6 h, read-out: Efficacy (ratio to DMSO) TNF-alpha induced response; for Efficacy (ratio to DMSO) TNF-alpha induced response: 6 hours
Source text: TNF-alpha responsive cell lines like the human HeLa cell line can be used to study cellular responses to TNF-alpha, e.g. transcriptional regulation of a transfected TNF-alpha responsive reporter gene, and effects of kinase inhibitors on this response.
In order to analyse compound effects on TNF-alpha mediated transcriptional response, a HeLa-derived cell line stably transfected with a TNF-alpha inducible reporter gene was used (Panomics Catalog No. RC0013). The cell line was obtained by co-transfection of a luciferase reporter gene (Panomics P/N LR0051) and pHyg into human cervical epithelial HeLa cells, followed by hygromycin selection. TNFα-induced luciferase activity was used to select clones from the hygromycin-resistant cells. The cell line was maintained and stimulated according to the manufacturer's instructions. Briefly, cells were seeded at 5×10^5/well in 1 ml of growth medium in a 12-well plate and incubated in a humidified incubator at 37° C. and 5% CO2 for 24 hours. Medium was replaced with 1 ml of serum free medium and compounds were added up to concentrations of […]. After 1 hour of incubation, TNF-alpha was added to achieve a final concentration of 50 ng/ml. The culture dish was further incubated in a humidified incubator at 37° C. and 5% CO2 for 6 hours, medium was removed and 100 μL of lysis buffer were added to each well and the assay for luciferase activity was performed according to assay manufacturer's (Promega P/N E1500) recommendations. For more information about this cell line, go to worldwide website www(dot)panomics.com.
Compound effects on TNF-alpha-induced reporter gene expression is shown in column 6 in Table 1 given below. Indicated is the remaining luciferase activity after incubation in presence of 3 μM of compound as a ratio of the activity of DMSO-treated cells without compound. Specifically, it was intended to distinguish cell permeable compounds from other compounds having significant inhibitory potency with regard to other CDKs, but fail to penetrate cells or are unstable under the conditions of the experiment.

remaining activity at 0.01 µM [1]	remaining activity at 0.1 µM [1]	CDK9 10 nM (RA in %) [1]	CDK9 100 nM (RA in %) [1]	Compound	activity at 3 µM [2]	Efficacy (ratio to DMSO) TNF-alpha induced response [2]
88%	23%			COc1cc(F)ccc1-c1ccnc(NC(=O)C2CCCCC2)c1 [Example 1, N-(4-(4-Fluoro-2-methoxyphenyl)pyridin-2-yl)cyclohexanecarboxamide]	23%	
		33%	5%	COc1cc(F)ccc1-c1ccnc(NC(=O)[C@H]2CCC[C@H](NC(C)=O)C2)c1 (relative stereo) [Example 26, trans-3-Acetamido-N-(4-(4-fluoro-2-methoxyphenyl)-pyridin-2-yl)cyclohexanecarboxamide]		
95%	35%			COc1cc(F)ccc1-c1ccnc(NC(=O)CC(C)c2cccnc2)c1 (stereo not shown) [Example 23, N-(4-(4-Fluoro-2-methoxyphenyl)pyridin-2-yl)-3-(pyridin-3-yl)butanamide]	89%	
78%	33%			COc1cc(F)ccc1-c1ccnc(NC(=O)CC2CCCCC2)c1 [Example 2, 2-Cyclohexyl-N-(4-(4-fluoro-2-methoxyphenyl)pyridin-2-yl)acetamide]	49%	
94%	96%			COc1cc(F)ccc1-c1ccnc(NC(=O)[C@@H](C)c2cccnc2)c1 (stereo in doubt) [Example 12, N-(4-(4-Fluoro-2-methoxyphenyl)pyridin-2-yl)-2-(pyridin-3-yl)propanamide]	83%	
		114%	97%	COc1ccc(F)cc1-c1ccnc(NC(=O)C(C)c2cccs2)c1 (stereo not shown) [Example 17, N-(4-(5-Fluoro-2-methoxyphenyl)pyridin-2-yl)-2-(thiophen-2-yl)propanamide]		0.88
66%	2%			COc1cc(F)ccc1-c1ccnc(NC(=O)C(C)c2cccnc2)c1 (stereo not shown) [Example 13, N-(4-(4-Fluoro-2-methoxyphenyl)pyridin-2-yl)-2-(pyridin-3-yl)propanamide]	4%	
65%	8%			COc1cc(F)ccc1-c1ccnc(NC(=O)C(C)c2ccc(N3CCN(C)CC3)cc2)c1 (stereo not shown) [Example 27, N-(4-(4-Fluoro-2-methoxyphenyl)pyridin-2-yl)-2-(4-(4-methylpiperazin-1-yl)phenyl)propanamide]	8%	
39%	5%			COc1cc(F)ccc1-c1ccnc(NC(=O)Cc2ccc(N3CCN(C)CC3)cc2)c1 [Example 20, N-(4-(4-Fluoro-2-methoxyphenyl)pyridin-2-yl)-2-(4-(4-methylpiperazin-1-yl)phenyl)acetamide]	8%	
60%	6%			COc1cc(F)ccc1-c1ccnc(NC(=O)[C@@H]2CC[C@H](Nc3ccccc3)C2)c1 [Example 39, (1R,3S)—N-(4-(4-Fluoro-2-methoxyphenyl)pyridin-2-yl)-3-(phenylamino)-cyclopentanecarboxamide]	5%	
92%	32%			COc1cc(F)ccc1-c1ccnc(NC(=O)C(C)Cc2cccnc2)c1 (stereo not shown) [Example 24, N-(4-(4-Fluoro-2-methoxyphenyl)pyridin-2-yl)-2-((pyridin-3-yl)methyl)-propanamide]	104%	
88%	49%			COc1cc(F)ccc1-c1ccnc(NC(=O)C(C)Cc2ccc(N3CCN(C)CC3)cc2)c1 (stereo not shown) [Example 28, 2-(4-(4-Methylpiperazin-1-yl)benzyl)-N-(4-(4-fluoro-2-methoxyphenyl)-pyridin-2-yl)propanamide]	121%	
49%	9%			COc1cc(F)ccc1-c1ccnc(NC(=O)Cc2ccnc(Cl)c2)c1 [Example 19, 2-(2-Chloropyridin-4-yl)-N-(4-(4-fluoro-2-methoxyphenyl)pyridin-2-yl)acetamide]	6%	
88%	29%			COc1cc(F)ccc1-c1ccnc(NC(=O)CC(C)c2ccncc2)c1 (stereo not shown) [Example 21, N-(4-(4-Fluoro-2-methoxyphenyl)pyridin-2-yl)-3-(pyridin-4-yl)butanamide]	82%	
93%	39%			COc1cc(F)ccc1-c1ccnc(NC(=O)C(C)Cc2ccncc2)c1 (stereo not shown) [Example 22, N-(4-(4-Fluoro-2-methoxyphenyl)pyridin-2-yl)-2-((pyridin-4-yl)methyl)-propanamide]	98%	
89%	38%			COc1cc(F)ccc1-c1ccnc(NC(=O)[C@@H]2CCC[C@H](NC(C)=O)C2)c1 [Example 40, (1R,3S)-3-Acetamido-N-(4-(4-fluoro-2-methoxyphenyl)pyridin-2-yl)cyclohexanecarboxamide]	46%	
38%	8%			COc1cc(F)ccc1-c1ccnc(NC(=O)[C@H]2CC[C@@H](NC(C)=O)C2)c1 [Example 41, (1S,3R)-3-Acetamido-N-(4-(4-fluoro-2-methoxyphenyl)pyridin-2-yl)cyclopentanecarboxamide]	3%	
86%	9%			COc1cc(F)ccc1-c1ccnc(NC(=O)C2CCNCC2)c1 [Example 3, N-(4-(4-Fluoro-2-methoxyphenyl)pyridin-2-yl)piperidine-4-carboxamide]	5%	
36%	4%			COc1cc(F)ccc1-c1ccnc(NC(=O)[C@H]2CC[C@@H](Nc3nccs3)CC2)c1 [Example 35, cis-N-(4-(4-Fluoro-2-methoxyphenyl)pyridin-2-yl)-4-(thiazol-2-ylamino)-cyclohexanecarboxamide]	2%	
		99%	78%	COc1cc(F)ccc1-c1ccnc(NC(=O)[C@H]2CCC[C@H](NC(C)=O)C2)c1 (relative stereo) [Example 25, trans-3-Acetamido-N-(4-(4-fluoro-2-methoxyphenyl)-pyridin-2-yl)cyclohexanecarboxamide]		
59%	4%			COc1cc(F)ccc1-c1ccnc(NC(=O)[C@H]2CC[C@@H](N)CC2)c1 [Example 4, cis-4-Amino-N-(4-(4-fluoro-2-methoxyphenyl)pyridin-2-yl)cyclohexane-carboxamide]	5%	
68%	16%			COc1ccc(CC(=O)Nc2cc(-c3ccc(F)cc3OC)ccn2)cc1 [Example 6, N-(4-(4-Fluoro-2-methoxyphenyl)pyridin-2-yl)-2-(4-methoxyphenyl)-acetamide]	7%	
59%	12%			COc1cc(F)ccc1-c1ccnc(NC(=O)[C@H]2CC[C@@H](Nc3ccccc3)CC2)c1 [Example 36, cis-N-(4-(4-Fluoro-2-methoxyphenyl)pyridin-2-yl)-4-(phenylamino)-cyclohexanecarboxamide]	26%	
78%	17%			COc1cc(F)ccc1-c1ccnc(NC(=O)Cc2ccccc2)c1 [Example 7, N-(4-(4-Fluoro-2-methoxyphenyl)pyridin-2-yl)-2-phenylacetamide]	8%	
		32%	5%	COc1ccc(F)cc1-c1ccnc(NC(=O)C(C)c2cccs2)c1 (stereo not shown) [Example 18, N-(4-(5-Fluoro-2-methoxyphenyl)pyridin-2-yl)-2-(thiophen-2-yl)propanamide]		0.07

From patent publication US9067888B2, “Inhibitors of protein kinases” (Ingenium Pharmaceuticals GmbH, priority 2010, dated 2015)
